Source: ChEMBL document CHEMBL5724914, “Linking interpersonal differences in gut microbiota composition and drug biotransformation activity” (2024)

Key:
[1] = human gut metagenome, 24 h, 2 µM
[2] = human gut metagenome, 24 h, 2 µM; remark: listed apart in the source
[3] = (§1) The drug is tested on Z-013 corresponding to rabbit gut metagenome with ENA study accession number: PRJEB37062 and ENA sample accession number: ERS12561813 for biotransformation under anaerobic condition. The drug concentrations were measured over 9 timepoints collected between 0 and 24 hours of incubation by liquid-chromatography-coupled mass spectrometry (LC–MS); settings: 2 µM
[4] = as §1, with “Z-001” for “Z-013”, “mouse” for “rabbit”, “ERS12561801” for “ERS12561813”; settings: 2 µM
[5] = human gut metagenome, 24 h, 2 µM; remark: listed apart in the source
[6] = human gut metagenome, 24 h, 2 µM; remark: listed apart in the source
[7] = as §1, with “WLS-077” for “Z-013”, “human” for “rabbit”, “ERS12561750” for “ERS12561813”; settings: 2 µM
[8] = as §1, with “Z-018” for “Z-013”, “pig” for “rabbit”, “ERS12561817” for “ERS12561813”; settings: 2 µM
[9] = human gut metagenome, 24 h, 2 µM; remark: listed apart in the source
[10] = as §1, with “WLS-039” for “Z-013”, “human” for “rabbit”, “ERS12561746” for “ERS12561813”; settings: 2 µM
[11] = as §1, with “Z-008” for “Z-013”, “to” for “to rabbit gut”, “ERS12561808” for “ERS12561813”; settings: 2 µM
[12] = as §1, with “Z-028” for “Z-013”, “mouse” for “rabbit”, “ERS12561827” for “ERS12561813”; settings: 2 µM
[13] = as §1, with “Z-010” for “Z-013”, “to” for “to rabbit gut”, “ERS12561810” for “ERS12561813”; settings: 2 µM
[14] = as §1, with “Z-011” for “Z-013”, “mouse” for “rabbit”, “ERS12561811” for “ERS12561813”; settings: 2 µM
[15] = as §1, with “Z-023” for “Z-013”, “to” for “to rabbit gut”, “ERS12561822” for “ERS12561813”; settings: 2 µM
[16] = as §1, with “WLS-350” for “Z-013”, “human” for “rabbit”, “ERS12561789” for “ERS12561813”; settings: 2 µM
[17] = as §1, with “WLS-240” for “Z-013”, “human” for “rabbit”, “ERS12561773” for “ERS12561813”; settings: 2 µM
[18] = human gut metagenome, 24 h, 2 µM; remark: listed apart in the source
[19] = as §1, with “Z-006” for “Z-013”, “mouse” for “rabbit”, “ERS12561806” for “ERS12561813”; settings: 2 µM
[20] = human gut metagenome, 24 h, 2 µM; remark: listed apart in the source
Also: call rule not given here.

Compound | Bacterial Biotransformation [1] | Bacterial Biotransformation [2] | Bacterial Biotransformation [3] | Bacterial Biotransformation [4] | Bacterial Biotransformation [5] | Bacterial Biotransformation [6] | Bacterial Biotransformation [7] | Bacterial Biotransformation [8] | Bacterial Biotransformation [9] | Bacterial Biotransformation [10] | Bacterial Biotransformation [11] | Bacterial Biotransformation [12] | Bacterial Biotransformation [13] | Bacterial Biotransformation [14] | Bacterial Biotransformation [15] | Bacterial Biotransformation [16] | Bacterial Biotransformation [17] | Bacterial Biotransformation [18] | Bacterial Biotransformation [19] | Bacterial Biotransformation [20]
CC(C)(C)NC(=O)[C@H]1CC[C@H]2[C@@H]3CC[C@H]4NC(=O)C=C[C@]4(C)[C@H]3CC[C@]12C [FINASTERIDE] | Compound metabolized | Compound metabolized | Compound metabolized | Compound NOT metabolized | Compound metabolized | Compound metabolized | Compound metabolized | Compound metabolized | Compound metabolized | Compound metabolized | Compound NOT metabolized | Compound metabolized | Compound metabolized | Compound metabolized | Compound metabolized | Compound metabolized | Compound metabolized | Compound metabolized | Compound metabolized | Compound metabolized
CC1Cc2ccccc2N1NC(=O)c1ccc(Cl)c(S(N)(=O)=O)c1 (stereo not given) [INDAPAMIDE] | Compound NOT metabolized | Compound NOT metabolized | Compound NOT metabolized | Compound NOT metabolized | Compound NOT metabolized | Compound NOT metabolized | Compound NOT metabolized | Compound NOT metabolized | Compound NOT metabolized | Compound NOT metabolized | Compound NOT metabolized | Compound NOT metabolized | Compound NOT metabolized | Compound NOT metabolized | Compound NOT metabolized | Compound NOT metabolized | Compound NOT metabolized | Compound NOT metabolized | Compound NOT metabolized | Compound NOT metabolized
COc1ccc2c(c1)c(CC(=O)O)c(C)n2C(=O)c1ccc(Cl)cc1 [INDOMETHACIN] | Compound metabolized | Compound metabolized | Compound NOT metabolized | Compound NOT metabolized | Compound metabolized | Compound metabolized | Compound metabolized | Compound metabolized | Compound metabolized | Compound metabolized | Compound NOT metabolized | Compound NOT metabolized | Compound NOT metabolized | Compound NOT metabolized | Compound NOT metabolized | Compound metabolized | Compound metabolized | Compound metabolized | Compound NOT metabolized | Compound metabolized
CC(CCc1ccccc1)NCC(O)c1ccc(O)c(C(N)=O)c1 (stereo not given) [LABETALOL] | Compound NOT metabolized | Compound NOT metabolized | Compound NOT metabolized | Compound NOT metabolized | Compound NOT metabolized | Compound metabolized | Compound NOT metabolized | Compound NOT metabolized | Compound NOT metabolized | Compound NOT metabolized | Compound NOT metabolized | Compound NOT metabolized | Compound NOT metabolized | Compound NOT metabolized | Compound metabolized | Compound NOT metabolized | Compound metabolized | Compound NOT metabolized | Compound NOT metabolized | Compound NOT metabolized
Nc1nnc(-c2cccc(Cl)c2Cl)c(N)n1 [LAMOTRIGINE] | Compound NOT metabolized | Compound NOT metabolized | Compound NOT metabolized | Compound NOT metabolized | Compound NOT metabolized | Compound NOT metabolized | Compound NOT metabolized | Compound NOT metabolized | Compound metabolized | Compound NOT metabolized | Compound NOT metabolized | Compound NOT metabolized | Compound NOT metabolized | Compound NOT metabolized | Compound NOT metabolized | Compound NOT metabolized | Compound metabolized | Compound NOT metabolized | Compound NOT metabolized | Compound NOT metabolized
OC(c1cc(C(F)(F)F)nc2c(C(F)(F)F)cccc12)C1CCCCN1 (stereo not given) [MEFLOQUINE] | Compound NOT metabolized | Compound NOT metabolized | Compound NOT metabolized | Compound NOT metabolized | Compound metabolized | Compound metabolized | Compound metabolized | Compound metabolized | Compound metabolized | Compound metabolized | Compound NOT metabolized | Compound NOT metabolized | Compound metabolized | Compound metabolized | Compound metabolized | Compound NOT metabolized | Compound metabolized | Compound NOT metabolized | Compound NOT metabolized | Compound NOT metabolized
CC(=O)O[C@]1(C(C)=O)CC[C@H]2[C@@H]3C=C(C)C4=CC(=O)CC[C@]4(C)[C@H]3CC[C@@]21C [MEGESTROL ACETATE] | Compound metabolized | Compound metabolized | Compound metabolized | Compound metabolized | Compound metabolized | Compound metabolized | Compound metabolized | Compound metabolized | Compound metabolized | Compound metabolized | Compound NOT metabolized | Compound metabolized | Compound metabolized | Compound metabolized | Compound NOT metabolized | Compound metabolized | Compound metabolized | Compound metabolized | Compound metabolized | Compound metabolized
CC12CC3CC(C)(C1)CC(N)(C3)C2 [MEMANTINE] | Compound NOT metabolized | Compound NOT metabolized | Compound NOT metabolized | Compound NOT metabolized | Compound NOT metabolized | Compound NOT metabolized | Compound NOT metabolized | Compound NOT metabolized | Compound NOT metabolized | Compound metabolized | Compound NOT metabolized | Compound NOT metabolized | Compound NOT metabolized | Compound NOT metabolized | Compound metabolized | Compound NOT metabolized | Compound NOT metabolized | Compound NOT metabolized | Compound NOT metabolized | Compound NOT metabolized
